Measured values from US11040981B2, “Pyrrolotriazine compounds and methods of inhibiting TAM kinases” (Syros Pharmaceuticals, Inc., priority 2017, dated 2021).
pIC50: −log10 of the molar value.

Experiments:
TYRO3 = biological target: T1, TYRO3 (Homo sapiens, UniProt Q06418); experiment: TR-FRET kinase activity assay, TYRO3; assay type: biochemical; settings: ATP at Km, 60 minutes
T1 sequence (Q06418 41-890): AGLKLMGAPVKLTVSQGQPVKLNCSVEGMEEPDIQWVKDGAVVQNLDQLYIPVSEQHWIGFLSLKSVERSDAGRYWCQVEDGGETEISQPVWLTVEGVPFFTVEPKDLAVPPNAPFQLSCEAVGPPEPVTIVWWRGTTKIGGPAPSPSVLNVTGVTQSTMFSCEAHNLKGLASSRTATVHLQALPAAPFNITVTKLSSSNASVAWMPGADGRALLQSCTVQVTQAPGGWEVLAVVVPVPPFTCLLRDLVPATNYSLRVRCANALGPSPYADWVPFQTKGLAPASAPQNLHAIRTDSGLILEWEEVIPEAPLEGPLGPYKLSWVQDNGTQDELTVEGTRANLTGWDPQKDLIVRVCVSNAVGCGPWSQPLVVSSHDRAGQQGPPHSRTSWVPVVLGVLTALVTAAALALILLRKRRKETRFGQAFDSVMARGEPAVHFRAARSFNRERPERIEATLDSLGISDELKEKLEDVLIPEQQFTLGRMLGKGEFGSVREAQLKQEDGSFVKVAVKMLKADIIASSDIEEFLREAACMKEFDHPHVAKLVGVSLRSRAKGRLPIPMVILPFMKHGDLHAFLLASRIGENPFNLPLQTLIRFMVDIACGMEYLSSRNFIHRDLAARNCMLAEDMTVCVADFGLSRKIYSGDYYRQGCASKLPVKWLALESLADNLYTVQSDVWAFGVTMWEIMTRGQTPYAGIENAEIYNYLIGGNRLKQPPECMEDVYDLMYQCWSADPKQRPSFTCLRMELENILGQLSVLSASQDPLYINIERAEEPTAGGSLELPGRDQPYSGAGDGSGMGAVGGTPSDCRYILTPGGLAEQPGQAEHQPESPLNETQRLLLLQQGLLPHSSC
Method in brief: (§1)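 Inhibition is measured as loss of phospho-peptide formation: kinase, fluorescent tyrosine peptide and compound are combined, ATP is added at Km, and the reaction proceeds 60 min at RT in pH 7.5 HEPES buffer. An EDTA stop and Eu-labelled phospho-specific antibody allow TR-FRET detection for IC50 fitting.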

FLT3 = biological target: T2, FLT3 (Homo sapiens, UniProt P36888); experiment: TR-FRET kinase activity assay, FLT3; assay type: biochemical; settings: ATP at Km, 60 minutes
T2 sequence (P36888 27-993): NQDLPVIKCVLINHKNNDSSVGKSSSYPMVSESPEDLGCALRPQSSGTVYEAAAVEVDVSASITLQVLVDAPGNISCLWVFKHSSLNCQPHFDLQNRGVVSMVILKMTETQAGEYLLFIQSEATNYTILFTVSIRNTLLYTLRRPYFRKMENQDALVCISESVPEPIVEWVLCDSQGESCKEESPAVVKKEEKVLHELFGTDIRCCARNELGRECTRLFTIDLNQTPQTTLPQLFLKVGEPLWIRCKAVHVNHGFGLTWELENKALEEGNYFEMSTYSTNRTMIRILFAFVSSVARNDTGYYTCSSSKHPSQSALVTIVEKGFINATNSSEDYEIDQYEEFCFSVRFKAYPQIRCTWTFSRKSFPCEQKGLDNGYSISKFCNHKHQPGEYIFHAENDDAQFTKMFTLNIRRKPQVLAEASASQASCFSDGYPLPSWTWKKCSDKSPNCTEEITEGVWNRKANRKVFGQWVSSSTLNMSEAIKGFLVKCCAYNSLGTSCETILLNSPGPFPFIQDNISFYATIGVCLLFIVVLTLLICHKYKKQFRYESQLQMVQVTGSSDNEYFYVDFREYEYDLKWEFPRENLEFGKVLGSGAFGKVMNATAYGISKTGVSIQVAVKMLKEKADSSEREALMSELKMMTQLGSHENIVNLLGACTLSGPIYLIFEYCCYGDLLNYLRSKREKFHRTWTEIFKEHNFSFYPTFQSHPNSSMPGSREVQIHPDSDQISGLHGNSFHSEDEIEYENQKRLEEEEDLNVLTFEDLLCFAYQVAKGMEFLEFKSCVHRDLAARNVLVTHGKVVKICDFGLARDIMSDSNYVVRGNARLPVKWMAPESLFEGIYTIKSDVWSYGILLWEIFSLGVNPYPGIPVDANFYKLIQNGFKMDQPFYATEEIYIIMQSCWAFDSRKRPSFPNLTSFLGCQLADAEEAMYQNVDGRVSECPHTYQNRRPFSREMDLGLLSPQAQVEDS
Method in brief: as §1

| SMILES | pIC50 (TYRO3) | pIC50 (FLT3) |
| --- | --- | --- |
| COC[C@H](C)Nc1ncc2c(-c3ccc(CN4CCOCC4)cc3)cc([C@H]3CC[C@H](NC(C)=O)CC3)n2n1 [Compound 300, N-((trans)-4-(2-(((S)-1-methoxypropan-2-yl)amino)-5-(4-(morpholinomethyl)phenyl)pyrrolo[2,1-f][1,2,4]triazin-7-yl)cyclohexyl)acetamide] | ≥ 7.00 | 6.00 to 7.00 |
| COC[C@H](C)Nc1ncc2c(-c3ccc(CN4CCOCC4)cc3)cc([C@H]3CC[C@H](NS(C)(=O)=O)CC3)n2n1 [Compound 301] | ≥ 7.00 | ≥ 7.00 |
| COC[C@H](C)Nc1ncc2c(-c3cnn(C4CN(CC(F)(F)F)C4)c3)cc([C@H]3CC[C@H](O)CC3)n2n1 [Compound 302] | ≥ 7.00 | 6.00 to 7.00 |
| COC[C@H](C)Nc1ncc2c(-c3cnn(CC4CNC(=O)C4)c3)cc([C@H]3CC[C@H](O)CC3)n2n1 (stereo partly shown) [Compound 303] | ≥ 7.00 | 6.00 to 7.00 |
| CNC(=O)c1cncc(-c2cc([C@H]3CC[C@H](O)CC3)n3nc(N[C@@H](C)CC(F)(F)F)ncc23)c1 [Compound 304] | ≥ 7.00 | 5.00 to 6.00 |
| COC[C@H](C)Nc1ncc2c(-c3cnn(Cc4cnccn4)c3)cc([C@H]3CC[C@H](O)CC3)n2n1 [Compound 305] | ≥ 7.00 | 6.00 to 7.00 |
| COC[C@H](C)Nc1ncc2c(-c3cnn(Cc4cnc(C)cn4)c3)cc([C@H]3CC[C@H](O)CC3)n2n1 [Compound 306] | ≥ 7.00 | 6.00 to 7.00 |
| CNC(=NC#N)N[C@H]1CC[C@H](c2cc(-c3ccc(CN4CCOCC4)cc3)c3cnc(N[C@@H](C)COC)nn32)CC1 [Compound 307] | ≥ 7.00 | ≥ 7.00 |
| COC[C@H](C)Nc1ncc2c(-c3cc(C)nc(C)c3)cc([C@H]3CC[C@H](O)CC3)n2n1 [Compound 308] | ≥ 7.00 | 5.00 to 6.00 |
| Cc1cc(-c2cc([C@H]3CC[C@H](O)CC3)n3nc(N[C@@H](C)C(F)F)ncc23)ccn1 [Compound 309] | ≥ 7.00 | 6.00 to 7.00 |
| C[C@@H](CC(F)(F)F)Nc1ncc2c(-c3cncc(C(=O)N(C)C)c3)cc([C@H]3CC[C@H](O)CC3)n2n1 [Compound 310] | ≥ 7.00 | 6.00 to 7.00 |
| C[C@@H](CC(F)(F)F)Nc1ncc2c(-c3cncc(C(=O)N4CCOCC4)c3)cc([C@H]3CC[C@H](O)CC3)n2n1 [Compound 311] | ≥ 7.00 | 6.00 to 7.00 |
| Cc1nnc(Cn2cc(-c3cc([C@H]4CC[C@H](O)CC4)n4nc(N[C@@H](C)COC(F)F)ncc34)cn2)o1 [Compound 312] | ≥ 7.00 | ≥ 7.00 |
| Cc1cc(-c2cc([C@H]3CC[C@H](O)CC3)n3nc(N[C@@H](C)COC(F)F)ncc23)ccn1 [Compound 313] | ≥ 7.00 | 6.00 to 7.00 |
| COC[C@H](C)Nc1ncc2c(-c3cnn(Cc4ccc(S(C)(=O)=O)cc4)c3)cc([C@H]3CC[C@H](O)CC3)n2n1 [Compound 314] | ≥ 7.00 | ≥ 7.00 |
| COC[C@H](C)Nc1ncc2c(-c3cnn([C@@H]4CCNC4=O)c3)cc([C@H]3CC[C@H](O)CC3)n2n1 [Compound 315] | ≥ 7.00 | 6.00 to 7.00 |
| CNc1c(N[C@H]2CC[C@H](c3cc(-c4ccc(CN5CCOCC5)cc4)c4cnc(N[C@@H](C)COC)nn43)CC2)c(=O)c1=O [Compound 316, 3-(((trans)-4-(2-(((S)-1-methoxypropan-2-yl)amino)-5-(4-(morpholinomethyl)phenyl)pyrrolo[2,1-f][1,2,4]triazin-7-yl)cyclohexyl)amino)-4-(methylamino)cyclobut-3-ene-1,2-dione] | ≥ 7.00 | ≥ 7.00 |
| CNC(=O)c1ccc(-c2cc([C@H]3CC[C@H](O)CC3)n3nc(N[C@@H](C)COC)ncc23)cn1 [Compound 317] | ≥ 7.00 | ≥ 7.00 |
| COC[C@H](C)Nc1ncc2c(-c3cnn(C(C)(C)C(=O)N4CCC5(COC5)C4)c3)cc([C@H]3CC[C@H](O)CC3)n2n1 [Compound 318] | ≥ 7.00 | 5.00 to 6.00 |
| COC[C@H](C)Nc1ncc2c(-c3cnn(C(C)(C)C(=O)C4C[C@H]5COC[C@H]5C4)c3)cc([C@H]3CC[C@H](O)CC3)n2n1 (stereo partly shown) [Compound 319] | ≥ 7.00 | 5.00 to 6.00 |

Now from value to molecule:

| pIC50 (TYRO3) | pIC50 (FLT3) | SMILES |
| --- | --- | --- |
| ≥ 7.00 | 5.00 to 6.00 | COC[C@H](C)Nc1ncc2c(-c3cnn(C(C)(C)C(=O)N4C[C@@H](C)O[C@@H](C)C4)c3)cc([C@H]3CC[C@H](O)CC3)n2n1 [Compound 320] |
| ≥ 7.00 | ≥ 7.00 | Cc1ccc(-c2cc([C@H]3CC[C@H](O)CC3)n3nc(N[C@@H](C)COC(F)F)ncc23)cn1 [Compound 321] |
| ≥ 7.00 | 6.00 to 7.00 | COCC(C)Nc1ncc2c(-c3cnn(Cc4ccc(=O)n(C)c4)c3)cc(C3CCC(O)CC3)n2n1 (stereo not shown) [Compound 322] |
| ≥ 7.00 | 6.00 to 7.00 | COC[C@H](C)Nc1ncc2c(-c3cnn(C4CCS(=O)(=O)CC4)c3)cc([C@H]3CC[C@H](O)CC3)n2n1 [Compound 323] |
| ≥ 7.00 | 6.00 to 7.00 | COC[C@H](C)Nc1ncc2c(-c3cnn(C[C@H]4CCC(=O)N4)c3)cc([C@H]3CC[C@H](O)CC3)n2n1 [Compound 324] |
| ≥ 7.00 | 5.00 to 6.00 | COC[C@H](C)Nc1ncc2c(-c3cnn(C(C)(C)C(=O)N4CC5(COC5)C4)c3)cc([C@H]3CC[C@H](O)CC3)n2n1 [Compound 326] |
| ≥ 7.00 | 5.00 to 6.00 | COC[C@H](C)Nc1ncc2c(-c3cnn(C(C)(C)C(=O)N4C[C@H]5CC[C@@H](C4)O5)c3)cc([C@H]3CC[C@H](O)CC3)n2n1 [Compound 327] |
| ≥ 7.00 | 5.00 to 6.00 | COC[C@H](C)Nc1ncc2c(-c3cnn(C(C)(C)C(=O)N4C[C@H](C)O[C@@H](C)C4)c3)cc([C@H]3CC[C@H](O)CC3)n2n1 [Compound 328] |
| ≥ 7.00 | 6.00 to 7.00 | COC[C@H](C)Nc1ncc2c(-c3cnn(Cc4cncc(C)n4)c3)cc([C@H]3CC[C@H](O)CC3)n2n1 [Compound 329] |
| ≥ 7.00 | 6.00 to 7.00 | COC[C@H](C)Nc1ncc2c(-c3cnn(C4CC(C(=O)OC)C4)c3)cc([C@H]3CC[C@H](O)CC3)n2n1 (stereo partly shown) [Compound 330] |
| ≥ 7.00 | 6.00 to 7.00 | COC[C@H](C)Nc1ncc2c(-c3cnn(C(C)(C)C(=O)N4CCS(=O)(=O)CC4)c3)cc([C@H]3CC[C@H](O)CC3)n2n1 [Compound 331, 1-(1,1-dioxidothiomorpholino)-2-(4-(7-((trans)-4-hydroxycyclohexyl)-2-(((S)-1-methoxypropan-2-yl)amino)pyrrolo[2,1-f][1,2,4]triazin-5-yl)-1H-pyrazol-1-yl)-2-methylpropan-1-one] |
| ≥ 7.00 | 6.00 to 7.00 | COC[C@H](C)Nc1ncc2c(-c3cnn(Cc4cn[nH]c4)c3)cc([C@H]3CC[C@H](O)CC3)n2n1 [Compound 332] |
| ≥ 7.00 | 6.00 to 7.00 | COC[C@H](C)Nc1ncc2c(-c3cnn(Cc4cc(C)nn4C)c3)cc([C@H]3CC[C@H](O)CC3)n2n1 [Compound 333] |
| ≥ 7.00 | 5.00 to 6.00 | CNC(=O)c1ncc(-c2cc([C@H]3CC[C@H](O)CC3)n3nc(N[C@@H](C)COC)ncc23)cn1 [Compound 334] |
| ≥ 7.00 | 5.00 to 6.00 | CNC(=O)c1cc(-c2cc([C@H]3CC[C@H](O)CC3)n3nc(N[C@@H](C)COC)ncc23)cc(C)n1 [Compound 335] |
